Source: patent US9115129B2, “Substituted pyrido[2,3-B]pyrazines as IP receptor agonists” (Novartis AG, priority 2012, dated 2015)

Target: T1, IP receptor (Homo sapiens, UniProt P43119)
T1 construct: expressed in transfected cells; host or cells: CHO cells stably expressing the IP receptor (CHO-IP)
Test: cAMP accumulation in CHO cells stably expressing the IP receptor (CHO-IP), Perkin Elmer AlphaScreen assay
Format: cell-based
Settings: agonist activity, 1 hour at room temperature
Protocol: Activity of compounds at the IP receptor (IP receptor) is assessed by measuring cAMP accumulation in CHO cells stably expressing the IP receptor (CHO-IP) using the Perkin Elmer AlphaScreen assay. This technology measures the endogenous production of cAMP, in a non-radioactive luminescence proximity homogenous assay. A biological reaction occurs between streptavidin coated donor beads, biotinylated cAMP and anti-cAMP acceptor beads, bringing the donor and acceptor beads close enough together so that upon excitation a fluorescence signal is produced. On production of endogenous cAMP, competition between the biotinylated cAMP and cellular-derived cAMP causes a reduction in the fluorescent signal. The reduction in signal is proportional to the amount of cAMP being produced, thus it is possible to quantify the amount of cAMP being produced on stimulation with agonist.
Test and reference compounds are prepared at 100× [final] in 100% DMSO, and diluted 1:3 using a Biomek Fx (Beckman Coulter). This is followed by an intermediate dilution to give 5× [final] in assay buffer (HBSS containing 5 mM HEPES, 0.1% (w/v) BSA). 5 μL of 5× [final] test compounds, reference compounds and buffer/DMSO control are then transferred to a 384-well white OptiPlate, containing 20 μL CHO-IP cell suspension (15,000 cells/well, prepared from frozen), and plate is incubated at room temperature for 1 hour. A cAMP standard curve is constructed for each experiment (concentration range of 10000 nM to 0.001 nM, in assay buffer) and 25 μL of each concentration added to the last two columns of the assay plate. The incubation is terminated by the addition of lysis buffer (dH2O; 0.3% (v v^−1) Tween-20) containing 20 units mL^−1 streptavidin coated donor beads and biotinylated cAMP (pre-incubated for 30 minutes) and 20 units mL^−1 anti-cAMP acceptor beads, which are added to the lysis buffer just before addition to the assay plate. The assay plate is then incubated at room temperature in the dark, for 60 minutes with gentle shaking, and read on the Envision plate reader (Perkin Elmer).
The raw data of the reference compounds, test compounds and controls are converted into cAMP concentrations, using the cAMP standard curve, in Graph Pad Prism (Graph Pad Software Inc). EC50 as well as maximal values of the agonist curves are determined using a 4-parameter logistic equation. The % maximum response values of all test compounds are determined using the top of the treprostinil concentration-response curve.

T1 sequence (P43119 whole entry): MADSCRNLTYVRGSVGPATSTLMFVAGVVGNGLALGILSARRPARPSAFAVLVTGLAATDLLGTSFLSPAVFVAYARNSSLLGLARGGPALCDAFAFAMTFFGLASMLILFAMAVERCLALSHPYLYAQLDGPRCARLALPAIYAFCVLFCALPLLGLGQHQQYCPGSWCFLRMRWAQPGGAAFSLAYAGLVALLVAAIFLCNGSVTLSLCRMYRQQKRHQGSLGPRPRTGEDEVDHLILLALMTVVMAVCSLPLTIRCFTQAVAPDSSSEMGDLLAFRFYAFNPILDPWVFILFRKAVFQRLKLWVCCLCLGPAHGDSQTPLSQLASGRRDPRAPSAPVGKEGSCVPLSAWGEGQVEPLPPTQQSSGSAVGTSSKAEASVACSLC

| Structure (SMILES) | EC50 |
| --- | --- |
| Cc1ccc(-c2nc3c(nc2-c2ccc(C)cc2)N(CCCCCCCC(=O)O)C(=O)CC3)cc1 [Example 1.2, 8-(6-Oxo-2,3-di-p-tolyl-7,8-dihydropyrido[2,3-b]pyrazin-5(6H)-yl)octanoic acid] | 1.9 nM |
| CCC1Cc2nc(-c3ccc(C)cc3)c(-c3ccc(C)cc3)nc2N(CCCCCCC(=O)O)C1 (stereo not shown) [Example 2.1, 7-(7-Ethyl-2,3-di-p-tolyl-7,8-dihydropyrido[2,3-b]pyrazin-5(6H)-yl)heptanoic acid] | 0.4 nM |
| Cc1ccc(-c2nc3c(nc2-c2ccccc2)CC(C)CN3CCCCCCC(=O)O)cc1 (stereo not shown) [Example 2.2, 7-(7-Methyl-2-phenyl-3-(p-tolyl)-7,8-dihydropyrido[2,3-b]pyrazin-5(6H)-yl)heptanoic acid] | 0.1 nM |
| Cc1ccc(-c2nc3c(nc2-c2ccccc2)CCC(C)N3CCCCCCC(=O)O)cc1 (stereo not shown) [Example 2.4, 7-(6-Methyl-2-phenyl-3-p-tolyl-7,8-dihydropyrido[2,3-b]pyrazin-5(6H)-yl)heptanoic acid] | 2.4 nM |
| Cc1ccc(-c2nc3c(nc2-c2ccccc2C)N(CCCCCCC(=O)O)CCC3)cc1 [Example 2.5, 7-(3-o-Tolyl-2-p-tolyl-7,8-dihydropyrido[3,2-b]pyrazin-5(6H)-yl)heptanoic acid] | 3.9 nM |
| Cc1ccc(-c2nc3c(nc2-c2ccccc2C)CCCN3CCCCCCC(=O)O)cc1 [Example 2.6, 7-(2-o-Tolyl-3-p-tolyl-7,8-dihydropyrido[3,2-b]pyrazin-5(6H)-yl)heptanoic acid] | 0.6 nM |
| Cc1ccc(-c2nc3c(nc2-c2ccccc2F)CCCN3CCCCCCC(=O)O)cc1 [Example 2.7, 7-(2-(2-Fluorophenyl)-3-p-tolyl-7,8-dihydropyrido[2,3-b]pyrazin-5(6H)-yl)heptanoic acid] | 0.3 nM |
| Cc1ccc(-c2nc3c(nc2-c2ccc(F)cc2)CCCN3CCCCCCC(=O)O)cc1 [Example 2.8, 7-(2-(4-Fluorophenyl)-3-p-tolyl-7,8-dihydropyrido[2,3-b]pyrazin-5(6H)-yl)heptanoic acid] | 0.4 nM |
| Cc1ccc(-c2nc3c(nc2-c2cccc(F)c2)CCCN3CCCCCCC(=O)O)cc1 [Example 2.9, 7-(2-(3-Fluorophenyl)-3-p-tolyl-7,8-dihydropyrido[2,3-b]pyrazin-5(6H)-yl)heptanoic acid] | 0.1 nM |
| COc1ccc(-c2nc3c(nc2-c2ccc(C)cc2)N(CCCCCCC(=O)O)CCC3)cc1 [Example 2.10, 7-(2-(4-Methoxyphenyl)-3-p-tolyl-7,8-dihydropyrido[2,3-b]pyrazin-5(6H)-yl)heptanoic acid] | 0.4 nM |
| O=C(O)CCCCCCN1CCCc2nc(-c3ccc(F)cc3F)c(-c3ccc(F)cc3F)nc21 [Example 4, 7-(2,3-Bis(2,4-difluorophenyl)-7,8-dihydropyrido[2,3-b]pyrazin-5(6H)-yl)heptanoic acid] | 0.7 nM |
| Cc1ccc(-c2nc3c(nc2-c2ccc(C)nc2)N(CCCCCCC(=O)O)CCC3)cn1 [Example 5, 7-(2,3-Bis(6-methylpyridin-3-yl)-7,8-dihydropyrido[2,3-b]pyrazin-5(6H)-yl)heptanoic acid] | 11.7 nM |
| Cc1ccc(-c2nc3c(nc2-c2ccc(C)nc2)CCCN3CCCCCCC(=O)O)cc1 [Example 6, 7-(2-(6-Methylpyridin-3-yl)-3-p-tolyl-7,8-dihydropyrido[2,3-b]pyrazin-5(6H)-yl)heptanoic acid] | 0.2 nM |
| Cc1ccc(-c2nc3c(nc2-c2ccc(C)nc2)N(CCCCCCC(=O)O)CCC3)cc1 [Example 7, 7-(3-(6-Methylpyridin-3-yl)-2-p-tolyl-7,8-dihydropyrido[2,3-b]pyrazin-5(6H)-yl)heptanoic acid] | 0.2 nM |
| O=C(O)CCCCCCN1C(=O)CCc2nc(-c3ccc(Cl)cc3)c(-c3ccc(Cl)cc3)nc21 [Example 7.1, 7-(2,3-Bis(4-chlorophenyl)-6-oxo-7,8-dihydropyrido[2,3-b]pyrazin-5(6H)-yl)heptanoic acid] | 2.3 nM |
| Cc1ccc(-c2nc3c(nc2-c2ccc(Cl)cc2)CCC(=O)N3CCCCCCC(=O)O)cc1 [Example 7.2, 7-(2-(4-Chlorophenyl)-6-oxo-3-p-tolyl-7,8-dihydropyrido[2,3-b]pyrazin-5(6H)-yl)heptanoic acid] | 1.2 nM |
| Cc1ccc(-c2nc3c(nc2-c2ccc(Cl)cc2)N(CCCCCCC(=O)O)C(=O)CC3)cc1 [Example 7.3, 7-(3-(4-Chlorophenyl)-6-oxo-2-p-tolyl-7,8-dihydropyrido[2,3-b]pyrazin-5(6H)-yl)heptanoic acid] | 0.3 nM |
| Cc1ccc(-c2nc3c(nc2-c2ccc(C)cc2)N(CCCCCCCCC(=O)O)C(=O)CC3)cc1 [Example 8, 9-(6-Oxo-2,3-di-p-tolyl-7,8-dihydropyrido[2,3-b]pyrazin-5(6H)-yl)nonanoic acid] | 7 nM |
| Cc1ccc(-c2nc3c(nc2-c2ccc(C)cc2)N(CCCCCC(=O)O)CCC3)cc1 [Example 10, 6-(2,3-Di-p-tolyl-7,8-dihydropyrido[2,3-b]pyrazin-5(6H)-yl)hexanoic acid] | 0.3 nM |
| Cc1ccc(-c2nc3c(nc2-c2ccc(C)cc2)N(CCCCCCC(=O)NS(=O)(=O)Cc2ccccc2)CCC3)cc1 [Example 12, N-(Benzylsulfonyl)-7-(2,3-di-p-tolyl-7,8-dihydropyrido[2,3-b]pyrazin-5(6H)-yl)heptanamide] | 5.9 nM |

Second part, the compound after the results:

| EC50 | Structure (SMILES) |
| --- | --- |
| 3.6 nM | COC1(C)CCN(CCCCCCC(=O)O)c2nc(-c3ccc(C)cc3)c(-c3ccc(C)cc3)nc21 (single isomer, unassigned) [Example 15b, (R)-7-(8-Methoxy-8-methyl-2,3-di-p-tolyl-7,8-dihydropyrido[2,3-b]pyrazin-5(6H)-yl)heptanoic acid or (S)-7-(8-Methoxy-8-methyl-2,3-di-p-tolyl-7,8-dihydropyrido[2,3-b]pyrazin-5(6H)-yl)heptanoic acid] |
| 3.6 nM | Cc1ccc(-c2nc3c(nc2-c2ccc(C)cc2)N(CCCC[C@@H](O)CC(=O)O)CCC3)cc1 (single isomer, unassigned) [Example 17a, (R)-7-(2,3-Di-p-tolyl-7,8-dihydropyrido[2,3-b]pyrazin-5(6H)-yl)-3-hydroxyheptanoic acid or (S)-7-(2,3-Di-p-tolyl-7,8-dihydropyrido[2,3-b]pyrazin-5(6H)-yl)-3-hydroxyheptanoic acid] |
| 1.8 nM | Cc1ccc(-c2nc3c(nc2-c2ccc(C)cc2)N(CCCCC(O)CC(=O)O)CCC3)cc1 (single isomer, unassigned) [Example 17b, (R)-7-(2,3-Di-p-tolyl-7,8-dihydropyrido[2,3-b]pyrazin-5(6H)-yl)-3-hydroxyheptanoic acid or (S)-7-(2,3-Di-p-tolyl-7,8-dihydropyrido[2,3-b]pyrazin-5(6H)-yl)-3-hydroxyheptanoic acid] |
| 0.6 nM | Cc1ccc(-c2nc3c(nc2-c2ccc(C)cc2)N(CCCCCCCCC(=O)O)CCC3)cc1 [Example 9.1, 9-(2,3-Di-p-tolyl-7,8-dihydropyrido[2,3-b]pyrazin-5(6H)-yl)nonanoic acid] |
| 40.2 nM | Cc1ccc(-c2nc3c(nc2-c2ccc(C)cc2)N(CCCCCCC(=O)NCc2ccccc2)CCC3)cc1 [Example 12.1, N-Benzyl-7-(2,3-di-p-tolyl-7,8-dihydropyrido[2,3-b]pyrazin-5(6H)-yl)heptanamide] |
| 6.4 nM | Cc1ccc(-c2nc3c(nc2-c2ccc(C)cc2)N(CCCCCCC(=O)NS(=O)(=O)c2ccccc2)CCC3)cc1 [Example 12.2, 7-(2,3-Di-p-tolyl-7,8-dihydropyrido[2,3-b]pyrazin-5(6H)-yl)-N-(phenylsulfonyl) heptanamide] |
| 45 nM | Cc1ccc(-c2nc3c(nc2-c2ccc(C)cc2)N(CCCCCCC(=O)NC(C)C)CCC3)cc1 [Example 12.3, 7-(2,3-Di-p-tolyl-7,8-dihydropyrido[2,3-b]pyrazin-5(6H)-yl)-N-isopropylheptanamide] |
| 12.1 nM | CNC(=O)CCCCCCN1CCCc2nc(-c3ccc(C)cc3)c(-c3ccc(C)cc3)nc21 [Example 12.4, 7-(2,3-Di-p-tolyl-7,8-dihydropyrido[2,3-b]pyrazin-5(6H)-yl)-N-methylheptanamide] |
| 40.7 nM | Cc1ccc(-c2nc3c(nc2-c2ccc(C)cc2)N(CCCCCCC(=O)Nc2ccccc2)CCC3)cc1 [Example 12.5, 7-(2,3-Di-p-tolyl-7,8-dihydropyrido[2,3-b]pyrazin-5(6H)-yl)-N-phenylheptanamide] |
| 4.7 nM | CONC(=O)CCCCCCN1CCCc2nc(-c3ccc(C)cc3)c(-c3ccc(C)cc3)nc21 [Example 12.6, 7-(2,3-Di-p-tolyl-7,8-dihydropyrido[2,3-b]pyrazin-5(6H)-yl)-N-methoxyheptanamide] |
| 75.9 nM | Cc1ccc(-c2nc3c(nc2-c2ccc(C)cc2)N(CCCCCCC(=O)N(C)C)CCC3)cc1 [Example 12.7, 7-(2,3-Di-p-tolyl-7,8-dihydropyrido[2,3-b]pyrazin-5(6H)-yl)-N,N-dimethylheptanamide] |
